Residues, ends and D or L forms follow the SMILES beside them.
Experiments:
[1] = Description: Stability constants for proton and metal complexes were obtained from pH-metric titration curves registered at T = 298 K and ionic strength 0.1 M (KCl). The potentiometric apparatus was previously described. Solutions were titrated with 0.1 M carbonate-free KOH. The electrode was daily calibrated for hydrogen ion concentration by titrating HNO3 with the standard base solution, under the same experimental conditions as above. The asymmetry potential and the slope of the electrode couple were computed by means of […][41] and Glee[42] programs. The purities and exact concentrations of the ligand solutions were determined by the Gran method. The […][44] program was employed for the overall formation constant (β) calculations, referred to the following equilibrium equation: pM + qL + rH ⇆ MpLqHr (charges omitted; p is 0 in the case of ligand protonation; r can be negative). The computed standard deviations (referring to random errors only) were given by the program itself and are shown in parentheses as uncertainties on the last significant figure. Hydrolysis constants for metal ions were taken from the literature[45],[46]. The distribution and competition diagrams were computed using the HYSS program.
1. Wild-type calcitermin: thermodynamic data
Wild-type calcitermin (WT) has been previously investigated by our research group in aqueous solutions and ionic medium NaClO4.1 For the sake of comparison, potentiometric studies of WT and its copper and zinc complexes have been performed in a different ionic medium (KCl 0.1 M). The study of the speciation under different experimental conditions, changing ionic medium and metal-ligand ratio, is essential to comprehensively describe the thermodynamics of calcitermin, which is usually found in multicomponent media like biological fluids.
Table S1. Equilibrium constants for protonation of WT and its Cu2+ and Zn2+ complex formation at T = 298 K and I = 0.1 M (KCl). Values in parentheses are standard deviations on the last significant figure.

E. coli (ATCC 25922) = test: In vitro anti-E. coli CFU assay; type: cell-based, Escherichia coli; settings: pH 5.4; for mean CFU number ± S.D.: per 0.1 mL
Procedure, shortened: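 Peptides (final 0.128, 0.064, 0.032 mg/mL), alone or with ZnCl2 or CuCl2 at M:L 0.9:1, were incubated with 10^3 CFU/well in PBS pH 5.4 plus 1.5% TSB at 37 °C with slow rocking for 3 and 24 h. Aliquots were plated on TSA and CFU counted after 24 h; triplicate.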

[2] = T = 298 K, I = 0.1 M (KCl), charges omitted
[3] = peptide 0.032 mg/mL + CuCl2 (0.9:1), 24 h
[4] = peptide 0.032 mg/mL + ZnCl2 (0.9:1), 24 h
[5] = peptide 0.064 mg/mL + CuCl2 (0.9:1), 24 h
[6] = peptide 0.064 mg/mL + ZnCl2 (0.9:1), 24 h
[7] = peptide 0.128 mg/mL + ZnCl2 (0.9:1), 24 h
[8] = peptide alone 0.032 mg/mL, 24 h
[9] = peptide alone 0.064 mg/mL, 24 h
[10] = peptide alone 0.128 mg/mL, 24 h

CC[C@H](C)[C@H](NC(=O)[C@H](C)NC(=O)[C@@H](N)C(C)C)C(=O)N[C@@H](C)C(=O)N[C@@H](CC(C)C)C(=O)N[C@@H](CCCCN)C(=O)N[C@@H](C)C(=O)N[C@@H](C)C(=O)N[C@@H](Cc1c[nH]cn1)C(=O)N[C@@H](Cc1ccc(O)cc1)C(=O)N[C@@H](Cc1c[nH]cn1)C(=O)N[C@H](C(=O)N[C@@H](Cc1c[nH]cn1)C(=O)N[C@@H](CCCCN)C(=O)N[C@@H](CCC(=O)O)C(N)=O)[C@@H](C)O [L3, VAIALKAAHYHTHKE-NH2] (H-VAIALKAAHYHTHKE-NH2)
pKa [CuH2L] [1]: 7.75
pKa [CuH3L] [1]: 6.90
pKa [CuH4L] [1]: 6.21
pKa [CuH5L] [1]: 5.16
pKa [CuHL] [1]: 9.53
pKa [CuL] [1]: 10.01
pKa [ZnH2L] [1]: 8.65
pKa [ZnH3L] [1]: 7.69
pKa [ZnH4L] [1]: 7.32
pKa [ZnH5L] [1]: 5.6
pKa [ZnHL] [1]: 9.47
logβ [CuH2L] [1, 2]: 33.11(2)
logβ [CuH3L] [1, 2]: 40.00(3)
logβ [CuH4L] [1, 2]: 46.21(2)
logβ [CuH5L] [1, 2]: 51.38(2)
logβ [CuH-1L] [1, 2]: 5.82(4)
logβ [CuHL] [1, 2]: 25.36(3)
logβ [CuL] [1, 2]: 15.83(5)
logβ [ZnH2L] [1, 2]: 28.06(4)
logβ [ZnH3L] [1, 2]: 35.75(6)
logβ [ZnH4L] [1, 2]: 43.07(3)
logβ [ZnH5L] [1, 2]: 48.7(1)
logβ [ZnHL] [1, 2]: 19.40(5)
logβ [ZnL] [1, 2]: 9.94(4)
mean CFU number ± S.D. (E. coli (ATCC 25922); peptide 0.032 mg/mL + CuCl2 (0.9:1), 3 h): 509 ± 100 CFU
CFU decrease/increase with respect to untreated controls (E. coli (ATCC 25922); [3]): +7%
mean CFU number ± S.D. (E. coli (ATCC 25922); [3]): 184 ± 17 CFU
mean CFU number ± S.D. (E. coli (ATCC 25922); peptide 0.032 mg/mL + ZnCl2 (0.9:1), 3 h): 439 ± 91 CFU
CFU decrease/increase with respect to untreated controls (E. coli (ATCC 25922); [4]): +17%
mean CFU number ± S.D. (E. coli (ATCC 25922); [4]): 202 ± 23 CFU
mean CFU number ± S.D. (E. coli (ATCC 25922); peptide 0.064 mg/mL + CuCl2 (0.9:1), 3 h): 198 ± 117 CFU
CFU decrease/increase with respect to untreated controls (E. coli (ATCC 25922); [5]): -20%
mean CFU number ± S.D. (E. coli (ATCC 25922); [5]): 138 ± 48 CFU
mean CFU number ± S.D. (E. coli (ATCC 25922); peptide 0.064 mg/mL + ZnCl2 (0.9:1), 3 h): 224 ± 4 CFU
CFU decrease/increase with respect to untreated controls (E. coli (ATCC 25922); [6]): +8%
mean CFU number ± S.D. (E. coli (ATCC 25922); [6]): 186 ± 21 CFU
mean CFU number ± S.D. (E. coli (ATCC 25922); peptide 0.128 mg/mL + CuCl2 (0.9:1), 3 h): 191 ± 7 CFU
mean CFU number ± S.D. (E. coli (ATCC 25922); peptide 0.128 mg/mL + CuCl2 (0.9:1), 24 h): 102 ± 20 CFU
mean CFU number ± S.D. (E. coli (ATCC 25922); peptide 0.128 mg/mL + ZnCl2 (0.9:1), 3 h): 59 ± 9 CFU
CFU decrease/increase with respect to untreated controls (E. coli (ATCC 25922); [7]): +9%
mean CFU number ± S.D. (E. coli (ATCC 25922); [7]): 187 ± 17 CFU
CFU decrease/increase with respect to untreated controls (E. coli (ATCC 25922); peptide alone 0.032 mg/mL, 3 h): -23%
mean CFU number ± S.D. (E. coli (ATCC 25922); peptide alone 0.032 mg/mL, 3 h): 810 ± 100 CFU
CFU decrease/increase with respect to untreated controls (E. coli (ATCC 25922); [8]): +17%
mean CFU number ± S.D. (E. coli (ATCC 25922); [8]): 202 ± 18 CFU
CFU decrease/increase with respect to untreated controls (E. coli (ATCC 25922); peptide alone 0.064 mg/mL, 3 h): -30%
mean CFU number ± S.D. (E. coli (ATCC 25922); peptide alone 0.064 mg/mL, 3 h): 737 ± 147 CFU
CFU decrease/increase with respect to untreated controls (E. coli (ATCC 25922); [9]): -3%
mean CFU number ± S.D. (E. coli (ATCC 25922); [9]): 166 ± 8 CFU
CFU decrease/increase with respect to untreated controls (E. coli (ATCC 25922); peptide alone 0.128 mg/mL, 3 h): -15%
mean CFU number ± S.D. (E. coli (ATCC 25922); peptide alone 0.128 mg/mL, 3 h): 893 ± 113 CFU
CFU decrease/increase with respect to untreated controls (E. coli (ATCC 25922); [10]): +12%
mean CFU number ± S.D. (E. coli (ATCC 25922); [10]): 193 ± 9 CFU
